Assay results published in patent US9937198B2, “Multi-functional composition and preparation method and application thereof” (Suzhou Sciscape Bio-Pharmaceutical Technology Co., Ltd., priority 2013, dated 2018).

Legend:
Format in all cases: in vivo
human skin = experiment: Determination of moisture content in human skin
Source text: 1. Subjects and Materials
One hundred and ten people were selected from the volunteers who participating in this test. They were females at the age of 30 to 55 with skin moisture content below 12%.
Solutions of Composition 1 to 7 prepared in this example were used except that the sterile water for medical use was replaced with warm water.
By skin moisture content, the subjects were randomly divided into 11 groups, i.e., a blank control group, administration groups 1 to 7 and negative control groups 1 to 3. The subjects in administration groups 1 to 7 respectively took 200 mL of the solution of Compositions 1 to 7 twice a day at 9 am and 9 pm while the subjects in the blank control group took 200 mL of warm water at the same time. In addition, the subjects in negative control groups 1 to 3 respectively took 200 mL of the solution of trehalose (0.15 g/mL), 200 mL of the solution of validamycin (0.3 mg/mL) and 200 mL of the solution of algal polysaccharides (0.15 g/mL). The administration lasted for 30 days. Skin moisture content was determined before administration and after administration. The determination was conducted in a spacious and well ventilated examination room. When the subjects were calm, the location to be determined was cleaned with sterile cotton ball soaked with distilled water. Fifteen minutes after the location was wiped dry, the skin moisture content was determined by skin moisture tester under the trademark of “KAKUSAN”.

diabetic mice = experiment: Reduction of blood glucose in streptozotocin diabetic mice; details: for Blood glucose level at different time points after administration: 13.3 mL/kg intragastric at 9 am and 9 pm every day; for Blood glucose level before administration: baseline, STZ diabetic mice
Protocol: Male ICR mice, 8 weeks old, 20±2 g in body weight, were purchased from Beijing HFK Bioscience Co., Ltd.
Also, the solutions of Compositions 1-7 were used in this Example.
I. Modeling: Before experiment started, a 0.1 mol/L sodium citrate buffer (pH4.5) was prepared. It was sterilized in an autoclave and then stored in a refrigerator at 4° C. Before the modeling began, this sodium citrate buffer was used to freshly prepare a 10 mg/mL solution of streptozotocin (STZ) in an ice bath. The mice were fed normally for 3 days, and then they were intraperitoneally administered with the freshly prepared STZ solution at a dose of 45 mg/kg for 5 consecutive days once a day.
II. Treatment: After the model was successfully established, the mice had not been administered with streptozotocin solution were arranged in a group, i.e., the normal group, and normally fed. The diabetic mice were randomly divided into 11 groups depending on blood glucose level, the groups being a model group, administration groups 1 to 7 and negative control groups 1 to 3. The mice in administration groups 1 to 7 were respectively intragastrically given the solution of Composition 1 to 7 prepared in this Example at a dose of 13.3 mL/kg body weight. The mice in the model group were intragastrically given sterile water for medical use at a dose of 13.3 mL/kg body weight. The mice in negative control groups 1 to 3 were respectively intragastrically administered with the solution of trehalose (0.15 g/mL), the solution of validamycin (0.3 mg/mL) and the solution of algal polysaccharides (0.15 g/mL) at a dose of 13.3 mL/kg body weight. The administration was conducted at 9 am and 9 pm every day, and blood glucose level was checked by Roche blood glucose meter once every other week for 5 weeks.

normal mice [1] = experiment: Defecation quantity and body weight changes in normal mice (sliming)
Protocol: (§1) Male ICR mice, 8 weeks old and 20±2 g in body weight, were purchased from Beijing HFK Bioscience Co., Ltd.
The solutions of Compositions 1 to 7 prepared in this example were used.
After the mice were fed normally for 3 days, they were given no food but water for 4 h. By body weight, they were randomly divided into 11 groups, i.e., a blank control group, administration groups 1 to 7 and negative control groups 1 to 3. The mice in administration groups 1 to 7 were intragastrically administered with the solutions of Compositions 1 to 7 respectively at a dose of 13.3 mL/kg body weight. On the other hand, the mice in the blank control group were intragastrically given sterile water for medical use at a dose of 13.3 mL/kg body weight. Further, the mice in negative control groups 1 to 3 were intragastrically given the solution of trehalose (0.15 g/mL), the solution of validamycin (0.3 mg/mL) and the solution of algal polysaccharides (0.15 g/mL) respectively at a dose of 13.3 mL/kg body weight. At 20 to 30 min post administration, mice were allowed to eat freely and the defecation quantity in the mice from each group before and after administration (average feces quantity of the mice in each group), the percentages of defecation quantities before and after administration based on the total defecation quantities throughout the experiment and the body weight were recorded.

normal mice [2] = experiment: Enterocinesia in normal mice (carbon powder movement in small intestine); details: 13.3 mL/kg intragastric; for Movement distance of carbon powder: carbon powder 20 to 30 min later, killed 15 to 20 min after; for Movement distance of carbon powder/full length of small intestine: normal mice
Protocol: as §1
Solutions of Compositions 1 to 7 were used in the experiment.
A suspension of carbon powder of 0.1 g/mL was also used. In particular, 1 g of carbon powder was added to and then suspended evenly in 10 mL of normal saline.
After the mice were fed normally for 3 days, they were given no food but water for 18-24 h. By the body weight, the mice were randomly divided into 11 groups, i.e., a blank control group, administration groups 1 to 7 and negative control groups 1 to 3. The mice in administration groups 1 to 7 were respectively intragastrically administered with the solutions of Compositions 1 to 7 at a dose of 13.3 mL/kg body weight while the mice in the blank control group were intragastrically given sterile water for medical use at a dose of 13.3 mL/kg body weight. The mice in negative control groups 1 to 3 were respectively intragastrically administered with the solution of trehalose (0.15 g/mL), the solution of validamycin (0.3 mg/mL) and the solution of algal polysaccharide (0.15 g/ml) at a dose of 13.3 mL/kg body weight. At 20 to 30 min post administration, all mice were intragastrically given the suspension of carbon powder at a dose of 0.2 mL/10 g body weight. At 15 to 20 min post the administration of the carbon powder suspension, the mice were killed by cervical vertebrae dislocation and then were quickly dissected to separate the small intestines. The movement distance of the carbon powder (the distance measured from the carbon powder at the forefront to the end of the duodenum closer to heart) and the full length of the small intestine were measured.

[3] = after administration, 200 mL twice a day for 30 days
[4] = after administration, 13.3 mL/kg intragastric

Row | SMILES | Skin moisture content (human skin; [3]) [%] | Skin moisture content (human skin; before administration) [%] | Blood glucose level at different time points after administration (diabetic mice; 1 week) [mmol/L] | Blood glucose level at different time points after administration (diabetic mice; 2 weeks) [mmol/L] | Blood glucose level at different time points after administration (diabetic mice; 3 weeks) [mmol/L] | Blood glucose level at different time points after administration (diabetic mice; 4 weeks) [mmol/L] | Blood glucose level at different time points after administration (diabetic mice; 5 weeks) [mmol/L] | Blood glucose level before administration (diabetic mice) [mmol/L] | Body weight (normal mice [1]; [4]) [g] | Percentage of defecation quantity in each stage based the total defecation quantity (normal mice [1]; [4]) [%] | defecation quantity (normal mice [1]; [4]) [g] | Body weight (normal mice [1]; before administration) [g] | Percentage of defecation quantity in each stage based the total defecation quantity (normal mice [1]; before administration) [%] | defecation quantity (normal mice [1]; before administration) [g] | Movement distance of carbon powder (normal mice [2]) [cm] | Movement distance of carbon powder/full length of small intestine (normal mice [2]) [%]
1 | OC[C@H]1O[C@H](O[C@H]2O[C@H](CO)[C@@H](O)[C@H](O)[C@H]2O)[C@H](O)[C@@H](O)[C@@H]1O [trehalose] | 8.52 ± 0.55 | 8.55 ± 0.68 | 22.15 ± 2.14 | 24.50 ± 2.35 | 25.33 ± 2.15 | 26.47 ± 2.12 | 27.16 ± 1.01 | 18.40 ± 2.07 | 19.10 | 37.84 | 0.70 ± 0.01 | 19.80 | 62.16 | 1.15 ± 0.03 | 33.6 ± 3.40 | 71.9 ± 8.20
2 | OCC1=C[C@H](N[C@H]2C[C@H](CO)[C@@H](O[C@@H]3O[C@H](CO)[C@@H](O)[C@H](O)[C@H]3O)[C@H](O)[C@H]2O)[C@H](O)[C@@H](O)[C@@H]1O [validamycin] | 8.35 ± 0.47 | 8.21 ± 0.98 | 20.20 ± 2.11 | 22.51 ± 2.28 | 23.57 ± 2.06 | 23.57 ± 1.07 | 24.01 ± 1.25 | 18.27 ± 2.13 | 19.45 | 35.26 | 0.67 ± 0.05 | 20.12 | 64.74 | 1.23 ± 0.04 | 29.3 ± 2.34 | 66.3 ± 6.57
